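The compound was tested at five concentrations on cells cultured in 96-well plates, with a 48-hour exposure period. The concentration for full growth arrest is given as TGI.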
Key:
Test in all cases: NCI tumour cell line growth inhibition, 48 h
HOP-62 NSCLC = tested on: HOP-62 NSCLC
XF 498 CNS = tested on: XF 498 CNS
HOP-18 NSCLC = tested on: HOP-18 NSCLC
OVCAR-3 ovarian = tested on: OVCAR-3 ovarian
K-562 leukemia = tested on: K-562 leukemia
SNB-78 CNS = tested on: SNB-78 CNS
DLD-1 colon = tested on: DLD-1 colon
SR leukemia = tested on: SR leukemia
SW-620 colon = tested on: SW-620 colon
UACC-257 melanoma = tested on: UACC-257 melanoma
RPMI-8226 leukemia = tested on: RPMI-8226 leukemia
SK-MEL-28 melanoma = tested on: SK-MEL-28 melanoma
NCI-H460 lung = tested on: NCI-H460 lung
NCI-H23 lung = tested on: NCI-H23 lung
HCC-2998 colon = tested on: HCC-2998 colon
M14 melanoma = tested on: M14 melanoma
A549 NSCLC = tested on: A549 NSCLC
RXF 393 renal = tested on: RXF 393 renal
SF-268 CNS = tested on: SF-268 CNS
786-0 renal = tested on: 786-0 renal
OVCAR-8 ovarian = tested on: OVCAR-8 ovarian
HOP-92 NSCLC = tested on: HOP-92 NSCLC
SN12C renal = tested on: SN12C renal
CCRF-CEM leukemia = tested on: CCRF-CEM leukemia
CAKI-1 renal = tested on: CAKI-1 renal
COLO 205 colon = tested on: COLO 205 colon
M19-MEL melanoma = tested on: M19-MEL melanoma
NCI-H226 lung = tested on: NCI-H226 lung
UACC-62 melanoma = tested on: UACC-62 melanoma
IGROV1 ovarian = tested on: IGROV1 ovarian
OVCAR-5 ovarian = tested on: OVCAR-5 ovarian
MOLT-4 leukemia = tested on: MOLT-4 leukemia
ACHN renal = tested on: ACHN renal
MALME-3M melanoma = tested on: MALME-3M melanoma
KM20L2 colon = tested on: KM20L2 colon
SK-OV-3 ovarian = tested on: SK-OV-3 ovarian
U251 CNS = tested on: U251 CNS
HCT-15 colon = tested on: HCT-15 colon
SK-MEL-2 melanoma = tested on: SK-MEL-2 melanoma
HL-60(TB) leukemia = tested on: HL-60(TB) leukemia
SF-539 CNS = tested on: SF-539 CNS
RXF-631 renal = tested on: RXF-631 renal
LOX IMVI melanoma = tested on: LOX IMVI melanoma
HT29 colon = tested on: HT29 colon
UO-31 renal = tested on: UO-31 renal
HCT-116 colon = tested on: HCT-116 colon
DMS 114 small cell lung = tested on: DMS 114 small cell lung
SNB-19 CNS = tested on: SNB-19 CNS
A498 renal = tested on: A498 renal
EKVX NSCLC = tested on: EKVX NSCLC
SF-295 CNS = tested on: SF-295 CNS
SNB-75 CNS = tested on: SNB-75 CNS
LXFL 529 NSCLC = tested on: LXFL 529 NSCLC
KM12 colon = tested on: KM12 colon
DMS 273 small cell lung = tested on: DMS 273 small cell lung
SK-MEL-5 melanoma = tested on: SK-MEL-5 melanoma
OVCAR-4 ovarian = tested on: OVCAR-4 ovarian
TK-10 renal = tested on: TK-10 renal
NCI-H522 lung = tested on: NCI-H522 lung

## COC(=O)C(C(=O)C(=O)Nc1ccc(Br)cc1)c1nc2ccc(Cl)cc2[nH]c1=O (centres undefined)
HOP-62 NSCLC
  TGI: > 100 µM
XF 498 CNS
  TGI: > 100 µM
HOP-18 NSCLC
  TGI: > 100 µM
OVCAR-3 ovarian
  TGI: > 100 µM
K-562 leukemia
  TGI: > 100 µM
SNB-78 CNS
  TGI: > 100 µM
DLD-1 colon
  TGI: > 100 µM
SR leukemia
  TGI: > 100 µM
SW-620 colon
  TGI: > 41.4 µM
UACC-257 melanoma
  TGI: > 100 µM
RPMI-8226 leukemia
  TGI: > 100 µM
SK-MEL-28 melanoma
  TGI: > 100 µM
NCI-H460 lung
  TGI: > 100 µM
NCI-H23 lung
  TGI: > 100 µM
HCC-2998 colon
  TGI: > 100 µM
M14 melanoma
  TGI: > 100 µM
A549 NSCLC
  TGI: > 100 µM
RXF 393 renal
  TGI: > 100 µM
SF-268 CNS
  TGI: > 100 µM
786-0 renal
  TGI: > 100 µM
OVCAR-8 ovarian
  TGI: > 100 µM
HOP-92 NSCLC
  TGI: > 100 µM
SN12C renal
  TGI: > 100 µM
CCRF-CEM leukemia
  TGI: > 100 µM
CAKI-1 renal
  TGI: > 100 µM
COLO 205 colon
  TGI: > 61.3 µM
M19-MEL melanoma
  TGI: > 100 µM
NCI-H226 lung
  TGI: > 100 µM
UACC-62 melanoma
  TGI: > 100 µM
IGROV1 ovarian
  TGI: > 100 µM
OVCAR-5 ovarian
  TGI: > 100 µM
MOLT-4 leukemia
  TGI: > 100 µM
ACHN renal
  TGI: > 100 µM
MALME-3M melanoma
  TGI: > 100 µM
KM20L2 colon
  TGI: > 100 µM
SK-OV-3 ovarian
  TGI: > 100 µM
U251 CNS
  TGI: > 100 µM
HCT-15 colon
  TGI: > 55.9 µM
SK-MEL-2 melanoma
  TGI: > 100 µM
HL-60(TB) leukemia
  TGI: > 100 µM
SF-539 CNS
  TGI: > 100 µM
RXF-631 renal
  TGI: > 100 µM
LOX IMVI melanoma
  TGI: > 100 µM
HT29 colon
  TGI: > 72.2 µM
UO-31 renal
  TGI: > 100 µM
HCT-116 colon
  TGI: > 100 µM
DMS 114 small cell lung
  TGI: > 100 µM
SNB-19 CNS
  TGI: > 100 µM
A498 renal
  TGI: > 100 µM
EKVX NSCLC
  TGI: > 100 µM
SF-295 CNS
  TGI: > 100 µM
SNB-75 CNS
  TGI: > 100 µM
LXFL 529 NSCLC
  TGI: > 100 µM
KM12 colon
  TGI: > 100 µM
DMS 273 small cell lung
  TGI: > 100 µM
SK-MEL-5 melanoma
  TGI: > 100 µM
OVCAR-4 ovarian
  TGI: > 71.3 µM
TK-10 renal
  TGI: > 100 µM
NCI-H522 lung
  TGI: > 100 µM

## COc1ccc(NCC#N)cc1
XF 498 CNS
  TGI: > 100 µM
HOP-18 NSCLC
  TGI: > 100 µM
OVCAR-3 ovarian
  TGI: > 100 µM
K-562 leukemia
  TGI: > 100 µM
SNB-78 CNS
  TGI: > 100 µM
DLD-1 colon
  TGI: > 100 µM
SR leukemia
  TGI: > 100 µM
SW-620 colon
  TGI: > 100 µM
UACC-257 melanoma
  TGI: > 100 µM
RPMI-8226 leukemia
  TGI: > 100 µM
SK-MEL-28 melanoma
  TGI: > 100 µM
NCI-H460 lung
  TGI: > 100 µM
NCI-H23 lung
  TGI: > 100 µM
HCC-2998 colon
  TGI: > 100 µM
M14 melanoma
  TGI: > 100 µM
A549 NSCLC
  TGI: > 100 µM
RXF 393 renal
  TGI: > 100 µM
SF-268 CNS
  TGI: > 100 µM
786-0 renal
  TGI: 75.8 µM
OVCAR-8 ovarian
  TGI: > 100 µM
HOP-92 NSCLC
  TGI: > 100 µM
SN12C renal
  TGI: > 100 µM
CCRF-CEM leukemia
  TGI: > 100 µM
COLO 205 colon
  TGI: > 100 µM
M19-MEL melanoma
  TGI: > 100 µM
UACC-62 melanoma
  TGI: > 100 µM
IGROV1 ovarian
  TGI: > 100 µM
OVCAR-5 ovarian
  TGI: > 100 µM
MOLT-4 leukemia
  TGI: > 100 µM
ACHN renal
  TGI: > 100 µM
MALME-3M melanoma
  TGI: > 100 µM
KM20L2 colon
  TGI: > 100 µM
SK-OV-3 ovarian
  TGI: > 100 µM
U251 CNS
  TGI: > 100 µM
HCT-15 colon
  TGI: > 100 µM
SK-MEL-2 melanoma
  TGI: > 100 µM
HL-60(TB) leukemia
  TGI: > 100 µM
SF-539 CNS
  TGI: > 100 µM
RXF-631 renal
  TGI: > 100 µM
LOX IMVI melanoma
  TGI: > 100 µM
HT29 colon
  TGI: > 100 µM
UO-31 renal
  TGI: > 100 µM
HCT-116 colon
  TGI: > 100 µM
DMS 114 small cell lung
  TGI: > 100 µM
SNB-19 CNS
  TGI: > 100 µM
A498 renal
  TGI: > 100 µM
EKVX NSCLC
  TGI: > 100 µM
SF-295 CNS
  TGI: > 100 µM
SNB-75 CNS
  TGI: > 100 µM
LXFL 529 NSCLC
  TGI: > 100 µM
KM12 colon
  TGI: > 100 µM
DMS 273 small cell lung
  TGI: > 100 µM
SK-MEL-5 melanoma
  TGI: > 100 µM
TK-10 renal
  TGI: > 100 µM
NCI-H522 lung
  TGI: > 100 µM

Source: PubChem BioAssay (NCI)
